In ChEMBL document CHEMBL1157539, “Thousands of chemical starting points for antimalarial lead identification” (Nature, 2010):

system: Plasmodium falciparum; test: GSK_TCMDC: Inhibition of Plasmodium falciparum 3D7 in whole erythrocytes, using parasite LDH activity as an index of growth.; type: functional, organism-based; settings: Plasmodium falciparum, 3D7

CCN(CC)Cc1ccc2c(=O)cc(CCc3cccc(F)c3F)n(CC(=O)N(Cc3ccc(-c4ccc(C(F)(F)F)cc4)cc3)C(C)C)c2c1 and CCCCNC(=O)c1cc(CNC2CCCCC2)ccc1-c1cccc(CNCc2ccc(-c3ccccc3)cc2)c1 are within 1.5-fold of each other in XC50: 782 nM for the first, 531 nM for the second.

First: COc1cc2nc(N3CCN(C(=O)c4ccco4)CC3)nc(NCc3ccccc3)c2cc1OC
Second: COc1cc(-c2ccc3c(-c4ccc(C(=O)N5CCN(C)CC5)cc4)n[nH]c3n2)cc(OC)c1OC
The XC50 of the first is 8-fold lower: 167 nM for the first, 1330 nM for the second.

Compared with COc1ccc(C2C(C(=O)Nc3cc(C)ccc3OC)c3ccccc3C(=O)N2C)cc1 (configuration not stated), Cc1[nH]c(C)c([N+](=O)[O-])c(=O)c1-c1ccc(Oc2ccccc2)cc1 is 3.7-fold lower in XC50: 982 nM for the first, 266 nM for the second.

COc1cc(Cc2cnc(N)nc2N)cc(OCCCCc2ccc([N+](=O)[O-])cc2)c1OC and CCCCCn1c(Sc2ccc(C#N)c([N+](=O)[O-])c2)nnc1-c1cc(OC)cc(OC)c1 are within 1.5-fold of each other in XC50: 989 nM for the first, 956 nM for the second.

c1ccc(-c2ccc3c(Nc4ccc5[nH]ncc5c4)ccnc3c2)nc1 and Cc1ccc(O)cc1Nc1ccnc2cc(-c3csc(CN4CCN(C)CC4)n3)ccc12 are within 1.5-fold of each other in XC50: 822 nM for the first, 597 nM for the second.

CO/N=C(\C)c1ccc2c(c1)CCN(CCC1CCC(NC(=O)/C=C/c3ccc(F)cc3)CC1)CC2 (configuration not stated) and O=C(/C=C/c1ccc(Cl)cc1)NCCCCCN1CCCC(C(=O)Nc2ccc(F)c(Cl)c2)C1 (configuration not stated) are within 1.5-fold of each other in XC50: 1070 nM for the first, 1120 nM for the second.

Going from Cc1cc(N(C)C)nc(Nc2ccc(NC(=O)C3CCCCC3)cc2)n1 to CCN(CC)C(=O)C1CCCN(c2cc(C)nc(Nc3ccc(Cl)cc3)n2)C1 (configuration not stated), the XC50 falls from 1110 nM to 718 nM (1.5-fold).

Compared with N#Cc1ccc(C=Cc2nccc3c2[nH]c2ccccc23)cc1, Cc1cccc(CNc2nccc3[nH]c4ccccc4c23)c1 is 3-fold higher in XC50: 643 nM for the first, 1900 nM for the second.

First: CCCN1CCN(c2ccc(NS(=O)(=O)c3ccc(C(=O)Nc4ccc(Cl)cc4)cc3)cc2)CC1
Second: COc1ccc(OC)c2c1CCN(CCN1CCC(C(=O)Nc3ccc(C(=O)Nc4ccc(Cl)cc4)cc3)CC1)C2
The XC50 of the first is 1.9-fold higher: 1110 nM for the first, 582 nM for the second.

First: COc1c(F)ccc2ncc(Cl)c(CCN3CCC(NCc4ccc5c(n4)NC(=O)CS5)CC3)c12
Second: COc1ccc2nccc([C@@H](O)CN3CCC(NCc4cc5cc(Cl)ccc5[nH]4)CC3)c2c1
The XC50 of the first is 4.2-fold higher: 544 nM for the first, 128 nM for the second.

Cc1cc(O)c(CN(C)Cc2ccc(N(C)C)cc2)cc1C(C)C and CCOc1cc(C(=O)NCCN(C(C)C)C(C)C)ccc1-c1nc2cc(Cl)ccc2[nH]1 are within 1.5-fold of each other in XC50: 550 nM for the first, 778 nM for the second.

COc1cc(N(Cc2ccc(F)cc2)C(=O)c2ccc(-c3ccccc3)cc2)ccc1OCCN1CCCC1 and COCCN1CCN(Cc2ccc(-c3ccc(-c4nc5cc(F)ccc5[nH]4)cc3)cc2)CC1 are within 1.5-fold of each other in XC50: 830 nM for the first, 717 nM for the second.

CCn1c(C=Cc2cc(Br)ccc2O)nc2ccccc2c1=O and O=C1C(=Cc2cc(Cc3ccccc3)ccc2O)SC(=S)N1Cc1ccccc1 are within 1.5-fold of each other in XC50: 654 nM for the first, 943 nM for the second.

Compared with Cc1nc2c(c(O)c1Cl)-c1ccc(Oc3cccc(C(F)(F)F)c3)cc1C2=O, CCOc1ccc2c(c1)OC(c1ccccc1)(C(F)(F)F)NC2=O (configuration not stated) is 4.4-fold higher in XC50: 37.9 nM for the first, 167 nM for the second.

C=CCn1c(Sc2ccc(C#N)c([N+](=O)[O-])c2)nnc1-c1ccc(Cl)cc1 and N#Cc1cccc(C(=O)Nc2cccc(-c3ccc(CN4CCCC4)cc3)c2)c1 are within 1.5-fold of each other in XC50: 667 nM for the first, 695 nM for the second.

Compared with CS(=O)(=O)c1ccc2nc(NC(=O)c3csnn3)sc2c1, O=C(Nc1ccc(Br)c(Cl)c1)c1cc([N+](=O)[O-])cc2cn[nH]c12 is 1.6-fold higher in XC50: 666 nM for the first, 1060 nM for the second.

Going from COc1cc2c(cc1C(F)(F)F)N(C(=O)Nc1cc(F)cc(-c3cccnn3)c1)CC2 to COc1cc([N+](=O)[O-])ccc1NC(=O)Nc1ccc(OC(F)(F)F)cc1, the XC50 rises from 275 nM to 1030 nM (3.7-fold).

CC(C)(CNCc1ccc(F)c(F)c1)c1nc(-c2ccnc(N)n2)c(-c2ccc(Cl)c(O)c2)[nH]1 and CN1CCC=C(C(=O)NCC(C)(C)c2nc(-c3ccc(Cl)c(O)c3)c(-c3ccncc3)[nH]2)C1 are within 1.5-fold of each other in XC50: 740 nM for the first, 1000 nM for the second.

Cc1cc(CNC(=O)[C@H](CC2CCCCC2)Nc2ccc(C#N)c3ccccc23)c(C(F)(F)F)o1 and CN(Cc1cc(C(F)(F)F)cc(C(F)(F)F)c1)C(=O)C(Cc1ccc(F)cc1)C1CCCNC1 (configuration not stated) are within 1.5-fold of each other in XC50: 1180 nM for the first, 1540 nM for the second.

First: SC(=Nc1ccc2c(c1)OCCO2)NN=Cc1ccccn1
Second: Cc1[nH]c(C)c(-c2ccc(/C=C/c3ccccn3)cc2)c(=O)c1Cl
The XC50 of the first is 2-fold higher: 1050 nM for the first, 516 nM for the second.

Oc1ccc(Nc2nc(NCc3ccco3)c3ccccc3n2)cc1 and CNC(=O)c1cnc(Nc2ccc(OCC(O)CN(C)C)cc2)nc1Nc1cccc([N+](=O)[O-])c1 (configuration not stated) are within 1.5-fold of each other in XC50: 674 nM for the first, 617 nM for the second.

Clc1ccc(-c2cc(-c3csc(NCCN4CCCCC4)n3)on2)cc1 and Nc1ccc(-c2csc(Nc3ccncc3)n2)cc1 are within 1.5-fold of each other in XC50: 989 nM for the first, 939 nM for the second.

CC(C)(C)c1cc(C(=O)Nc2ccc(C(=N)N)cc2)c(O)c(C(C)(C)C)c1 and CC(C)NCc1ccc(-c2cccc(NC(=O)c3ccc(F)cc3)c2)cc1 are within 1.5-fold of each other in XC50: 763 nM for the first, 881 nM for the second.

CC(C)CC(=O)N1CCNC[C@@H]1C(=O)NCc1ccc(Cl)c(Cl)c1 and C[C@H]1CN(Cc2cccc(-c3cc(CNC(=O)c4cccc(C(=O)c5ccc(Cl)c(Cl)c5)c4)ccc3F)c2)CCN1 are within 1.5-fold of each other in XC50: 950 nM for the first, 1140 nM for the second.

CC(C)(C)CNc1noc(-c2sccc2Br)n1 and O=c1cc(NCCCNCc2cc(Br)cs2)[nH]c2ccccc12 are within 1.5-fold of each other in XC50: 1120 nM for the first, 1060 nM for the second.

CCN(CC)CCOc1ccc(C(O)(C#CC(O)(c2ccc(C)cc2)c2ccc(OCCN(CC)CC)cc2)c2ccc(C)cc2)cc1 (configuration not stated) and FC(F)(F)Oc1ccc(-c2cnc3ccc(NCc4ccncc4)nn23)cc1 are within 1.5-fold of each other in XC50: 903 nM for the first, 866 nM for the second.

COc1ccc2c(NN=Cc3cccnc3)ccnc2c1 and COc1ccc2nccc([C@@H](O)CN3CCC(NC(=O)/C=C/c4ccnc5ccccc45)CC3)c2c1 are within 1.5-fold of each other in XC50: 684 nM for the first, 939 nM for the second.

NC1CCN(Cc2cccc(-c3csc(-c4nc5ccccc5[nH]4)c3)c2)C1 (configuration not stated) and CN(c1cc(NC(=O)c2ccc(F)cc2)ccn1)C1CCN(Cc2cccc(O)c2)CC1 are within 1.5-fold of each other in XC50: 892 nM for the first, 922 nM for the second.

First: C/C=C/COc1ccc2ccccc2c1CNCCCCCCCCNCc1c(OC/C=C/C)ccc2ccccc12
Second: N=C(NCCc1c[nH]c2ccccc12)NCc1ccccc1Cl
The XC50 of the first is 8.1-fold higher: 908 nM for the first, 112 nM for the second.

First: Cn1cc(C(=O)Nc2cccc(-c3cccc(-c4nc5cc(F)ccc5[nH]4)c3)c2)n(C)c1=O
Second: O=C(CCc1c[nH]cn1)Nc1cccc(-c2cccc(-c3nc4cc(C(F)(F)F)ccc4[nH]3)c2)c1
The XC50 of the first is 2.9-fold higher: 388 nM for the first, 132 nM for the second.

CC12CCC(CN(CC(O)Cn3c4ccccc4c4cc(I)ccc43)C1)C2(C)C (configuration not stated) and O=c1cc(NCCCNC2CCc3ccc(Cl)cc32)[nH]c2ccccc12 (configuration not stated) are within 1.5-fold of each other in XC50: 1160 nM for the first, 862 nM for the second.

Going from CCC[C@@H]([C@@H](Cc1ccc(C)s1)C(=O)N[C@@H](CNC(C)=O)C(=O)Nc1nccs1)N(O)C=O to O=C(NCCCN(Cc1ccc(F)cc1)c1ccccn1)C(c1cc2ccccc2o1)N1CCN(C(c2ccccc2)c2ccccc2)CC1 (configuration not stated), the XC50 rises from 176 nM to 838 nM (4.8-fold).

Compared with Cc1cc(Nc2ccc(Cl)c(Cl)c2)n2nc(C)nc2n1, CC1(C)N=C(N)N=C(N)N1c1ccc(Cl)c(Cl)c1 is 81-fold lower in XC50: 258 nM for the first, 3.2 nM for the second.

O=C(Nc1cc(Cl)cc(Cl)c1)c1cc(Cl)c(=O)n(Cc2cccc(Cl)c2)c1 and Cc1cccc(Nc2nc3nonc3nc2Nc2cccc(Cl)c2Cl)c1C are within 1.5-fold of each other in XC50: 752 nM for the first, 1030 nM for the second.

First: COc1ccc2ccccc2c1CCCCN1CCN(CC(c2ccc(F)cc2)N2CCC(N3CCCC3)CC2)CC1 (configuration not stated)
Second: O=C(c1cc2nc3c(c(C(F)(F)F)n2n1)CCc1ccccc1-3)N1CCN2CCCC2C1 (configuration not stated)
The XC50 of the first is 1.5-fold lower: 619 nM for the first, 947 nM for the second.

COc1cc2nc(N(C)CC3COc4ccccc4O3)nc(N)c2cc1OC (configuration not stated) and CO/C(=C\C=C\c1cc2cc(Cl)c(Cl)cc2[nH]1)C(=O)N[C@H]1CN2CCC1CC2 are within 1.5-fold of each other in XC50: 1550 nM for the first, 1210 nM for the second.
